Measurements: patent publication US20240417410A1, “TRICYCLIC COMPOUNDS FOR THE TREATMENT OF CANCER” (Hoffmann-La Roche Inc., priority 2023, published 2024)

How the values were obtained:
AGS cells (KRAS G12D) = test: Cell viability assay (Cell Counting Kit-8, 3-day); type: cell-based, human; details: Homo sapiens, 72 h, 72 hrs incubation
Procedure, shortened: (§1)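 Cells were seeded at 5,000 cells/well (NCI-H358) or 2,000 cells/well (AGS, SW620), incubated overnight, then treated with compounds in 0.5% DMSO final for 72 hrs. CCK-8 was added and OD450 minus OD650 read after 2 hrs; IC50 came from a 4-parameter sigmoidal fit.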

[1] = tested on: NCI-H358 cells (KRAS G12C); test: Cell viability assay (Cell Counting Kit-8, 3-day); type: cell-based, human; details: Homo sapiens, NCI-H358, 72 h, NCI-H358, 72 hrs incubation
Procedure, shortened: as §1

SW620 cells (KRAS G12V) = test: Cell viability assay (Cell Counting Kit-8, 3-day); type: cell-based, human; details: Homo sapiens, SW-620; SW620, 72 hrs incubation
Procedure, shortened: as §1

KRAS G12C-BRAF complex = KRAS G12C-BRAF complex (Homo sapiens (Human), UniProt P01116+P62937, G12C); test: KRAS-BRAF with CYPA (500 nM) interaction assay (TR-FRET, Example 136); type: biochemical; details: KRAS G12C-BRAF disruption
[2] = tested on: phosphorylation of ERK, KRAS G12C in NCI-H358 cells; test: pERK inhibition assay; type: cell-based; details: Homo sapiens, NCI-H358, 4 h
Procedure, shortened: (§2)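 Cells in RPMI-1640 with 10% FBS were plated overnight (30,000/well H358, 20,000 AGS, 30,000 SW620) and treated 4 h with compounds at 0.5% DMSO. After formaldehyde fixation and methanol permeabilization, pERK was detected by in-cell ELISA with HRP secondary and TMB (OD450); IC50 from 4-parameter fit.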

[3] = tested on: phosphorylation of ERK, KRAS G12D in AGS cells; test: pERK inhibition assay; type: cell-based; details: Homo sapiens, AGS, 4 h
Procedure, shortened: as §2

[4] = tested on: phosphorylation of ERK, KRAS G12V in SW620; test: pERK inhibition assay; type: cell-based; details: Homo sapiens, SW-620, 4 h, SW620 cells
Procedure, shortened: as §2

KRAS G12C-BRAF complex, sequence (P01116-2 other isoform, or with tags, fused parts or gaps G12C): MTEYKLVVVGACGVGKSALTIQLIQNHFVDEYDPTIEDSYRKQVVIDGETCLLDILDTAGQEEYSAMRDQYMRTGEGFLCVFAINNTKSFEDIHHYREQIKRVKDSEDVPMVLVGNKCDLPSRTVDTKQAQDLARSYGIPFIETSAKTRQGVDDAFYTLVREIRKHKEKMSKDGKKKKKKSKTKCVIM
KRAS G12C-BRAF complex, sequence (P62937 whole entry): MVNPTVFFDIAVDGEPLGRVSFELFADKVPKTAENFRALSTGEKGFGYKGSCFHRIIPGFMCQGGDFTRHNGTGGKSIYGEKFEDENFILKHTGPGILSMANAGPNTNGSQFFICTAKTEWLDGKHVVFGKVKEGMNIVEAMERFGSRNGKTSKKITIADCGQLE

Structure (SMILES) | IC50 (AGS cells (KRAS G12D)) | IC50 [1] | IC50 (SW620 cells (KRAS G12V)) | IC50 (KRAS G12C-BRAF complex) | IC50 [2] | IC50 [3] | IC50 [4]
CO[C@@H](C)c1ncc(N2CCN3CCOC[C@@H]3C2)cc1-c1c2c3cc(cc4c3n1CCC4)-c1csc(n1)C[C@H](NC(=O)[C@H]1C[C@@H]1C(F)F)C(=O)N1CCC[C@H](N1)C(=O)OCC(C)(C)C2 (atropisomer, axis not shown; (M)) [Example 41, (1S,2S)-N-[(7S,13S)-(20M)-20-[5-[(9αS)-3,4,6,7,9,9a-hexahydro-1H-pyrazino[2,1-c][1,4]oxazin-8-yl]-2-[(1S)-1-methoxyethyl]-3-pyridyl]-17,17-dimethyl-8,14-dioxo-15-oxa-4-thia-9,21,30,31-tetrazahexacyclo[23.3.1.1^2,5.1^9,13.0^19,27.0^21,26]hentriaconta-1 (28),2,5 (31),19,25 (29),26-hexaen-7-yl]-2-(difluoromethyl)cyclopropanecarboxamide] | 14 nM | 3.6 nM | 0.9 nM | 23.8 nM | 0.4 nM | 4.8 nM | 0.4 nM
CO[C@@H](C)c1ncc(N2CCN(C)CC2)cc1-c1c2c3cc(cc4c3n1CCO4)-c1csc(n1)C[C@H](NC(=O)[C@H]1C[C@@H]1C(F)F)C(=O)N1CCC[C@H](N1)C(=O)OCC(C)(C)C2 (atropisomer, axis not shown; (M)) [Example 34, (1S,2S)-2-(difluoromethyl)-N-[(7S,13S)-(20M)-20-[2-[(1S)-1-methoxyethyl]-5-(4-methylpiperazin-1-yl)-3-pyridyl]-17,17-dimethyl-8,14-dioxo-15,24-dioxa-4-thia-9,21,30,31-tetrazahexacyclo[23.3.1.1^2,5.1^9,13.0^19,27.0^21,26]hentriaconta-1 (28),2,5 (31), 19,25 (29),26-hexaen-7-yl]cyclopropanecarboxamide] | 12.4 nM | 4.7 nM | 1.1 nM | 31.8 nM | < 0.6 nM | 4.6 nM | < 0.6 nM
CO[C@@H](C)c1ncc(N2CCN(C)CC2)cc1-c1c2c3cc(cc4c3n1CCC4)-c1csc(n1)C[C@H](NC(=O)[C@@H]1C[C@H]1c1cscn1)C(=O)N1CCC[C@H](N1)C(=O)OCC(C)(C)C2 (atropisomer, axis not shown; (M)) [Example 114, (1R,2R)-N-[(7S,13S)-(20M)-20-[2-[(1S)-1-methoxyethyl]-5-(4-methylpiperazin-1-yl)-3-pyridyl]-17,17-dimethyl-8,14-dioxo-15-oxa-4-thia-9,21,30,31-tetrazahexacyclo[23.3.1.1^2,5.1^9,13.0^19,27.0^21,26]hentriaconta-1 (28),2,5 (31), 19,25 (29),26-hexaen-7-yl]-2-thiazol-4-yl-cyclopropanecarboxamide] | 5.1 nM | 4.5 nM | 1.3 nM | 8.9 nM | 1.2 nM | 7.5 nM | 1 nM
CO[C@@H](C)c1ncc(N2CCN(C[C@@H]3CNCCO3)CC2)cc1-c1c2c3cc(cc4c3n1CCC4)-c1csc(n1)C[C@H](NC(=O)[C@H]1[C@H](C)[C@@H]1C)C(=O)N1CCC[C@H](N1)C(=O)OCC(C)(C)C2 (atropisomer, axis not shown; (M)) [Example 119, (1r,2S,3R)-N-[(7S,13S)-(20M)-20-[2-[(1S)-1-methoxyethyl]-5-[4-[[(2S)-morpholin-2-yl]methyl]piperazin-1-yl]-3-pyridyl]-17,17-dimethyl-8,14-dioxo-15-oxa-4-thia-9,21,30,31-tetrazahexacyclo[23.3.1.1^2,5.1^9,13.0^19,27.0^21,26]hentriaconta-1 (28),2,5 (31),19,25 (29),26-hexaen-7-yl]-2,3-dimethyl-cyclopropanecarboxamide] | 4.4 nM | 3.5 nM | 0.8 nM | 9.3 nM | 1.7 nM | 6.9 nM | 1.2 nM
CO[C@@H](C)c1ncc(N2CCN(C)CC2)cc1-c1c2c3cc(cc4c3n1CCO4)-c1csc(n1)C[C@H](NC(=O)[C@H]1[C@@H]3COC[C@@H]31)C(=O)N1CCC[C@H](N1)C(=O)OCC(C)(C)C2 (atropisomer, axis not shown; (M)) [Example 35, (1S,5R,6r)-N-[(7S,13S)-(20M)-20-[2-[(1S)-1-methoxyethyl]-5-(4-methylpiperazin-1-yl)-3-pyridyl]-17,17-dimethyl-8,14-dioxo-15,24-dioxa-4-thia-9,21,30,31-tetrazahexacyclo[23.3.1.1^2,5.1^9,13.0^19,27.0^21,26]hentriaconta-1 (28),2,5 (31), 19,25 (29),26-hexaen-7-yl]-3-oxabicyclo[3.1.0]hexane-6-carboxamide] | 13 nM | 4.3 nM | 1 nM | 14.5 nM | 1 nM | 4.7 nM | < 0.6 nM
CO[C@@H](C)c1ncc(N2CCOCC2)cc1-c1c2c3cc(cc4c3n1CC(F)(F)C4)-c1csc(n1)C[C@H](NC(=O)[C@H]1[C@H](C)[C@@H]1C)C(=O)N1CCC[C@H](N1)C(=O)OCC(C)(C)C2 (atropisomer, axis not shown; (M)) [Example 76, (1r,2S,3R)-N-[(7S,13S)-23,23-difluoro-(20M)-20-[2-[(1S)-1-methoxyethyl]-5-morpholino-3-pyridyl]-17,17-dimethyl-8,14-dioxo-15-oxa-4-thia-9,21,30,31-tetrazahexacyclo[23.3.1.1^2,5.1^9,13.0^19,27.0^21,26]hentriaconta-1 (28),2,5 (31), 19,25 (29),26-hexaen-7-yl]-2,3-dimethyl-cyclopropanecarboxamide] | 4.9 nM | 2.1 nM | 0.3 nM | 9.1 nM | 0.7 nM | 3.9 nM | 0.2 nM
CO[C@@H](C)c1ncc(N2CCOCC2)cc1-c1c2c3cc(cc4c3n1CCO4)-c1csc(n1)C[C@H](NC(=O)[C@H]1C[C@@H]1c1cncnc1)C(=O)N1CCC[C@H](N1)C(=O)OCC(C)(C)C2 (atropisomer, axis not shown; (M)) [Example 88, (1S,2S)-N-[(7S,13S)-(20M)-20-[2-[(1S)-1-methoxyethyl]-5-morpholino-3-pyridyl]-17,17-dimethyl-8,14-dioxo-15,24-dioxa-4-thia-9,21,30,31-tetrazahexacyclo[23.3.1.1^2,5.1^9,13.0^19,27.0^21,26]hentriaconta-1 (28),2,5 (31), 19,25 (29),26-hexaen-7-yl]-2-pyrimidin-5-yl-cyclopropanecarboxamide] | 4 nM | 2 nM | 0.4 nM | 9.7 nM | 0.3 nM | 1.4 nM | 0.2 nM
CO[C@@H](C)c1ncc(N2CCN3CCOC[C@@H]3C2)cc1-c1c2c3cc(cc4c3n1CCC4)-c1csc(n1)C[C@H](NC(=O)[C@H]1C[C@@H]1C)C(=O)N1CCC[C@H](N1)C(=O)OCC(C)(C)C2 (atropisomer, axis not shown; (M)) [Example 25, (1S,2S)-N-[(7S,13S)-(20M)-20-[5-[(9αS)-3,4,6,7,9,9a-hexahydro-1H-pyrazino[2,1-c][1,4]oxazin-8-yl]-2-[(1S)-1-methoxyethyl]-3-pyridyl]-17,17-dimethyl-8,14-dioxo-15-oxa-4-thia-9,21,30,31-tetrazahexacyclo[23.3.1.1^2,5.1^9,13.0^19,27.0^21,26]hentriaconta-1 (28),2,5 (31),19,25 (29),26-hexaen-7-yl]-2-methyl-cyclopropanecarboxamide] | 32.6 nM | 6.7 nM | 1.8 nM | 32.6 nM | 1 nM | 11.3 nM | 0.8 nM
